Results published in ChEMBL document CHEMBL6177971, “Iterative Optimization Yields Stapled Peptides with Superior Pharmacokinetics and Potency for Renal Fibrosis Treatment” (J Med Chem, 2025).
The source made the active and inactive calls. No cut-off for these calls is given here.

Experiments:
[1] = Half life of compound; format: physicochemical
[2] = tested on: NIH3T3; test: Inhibition of TGF-beta1-induced EMT in mouse NIH3T3 cells assessed as decrease in fibronectin level at 10 uM incubated for 48 hrs by Western blot analysis; format: functional, cell-based
[3] = Half life in male C57BL/6J mouse at 2.8 mg/kg, iv measured for 3 to 240 mins by UHPLC-HRMS analysis; format: ADME, organism-based; conditions: in vivo, time 3-240 min
[4] = AUC (0 to t) in male C57BL/6J mouse at 2.8 mg/kg, iv measured for 3 to 240 mins by UHPLC-HRMS analysis; format: ADME, organism-based; conditions: in vivo, time 3-240 min
[5] = Volume of distribution in male C57BL/6J mouse at 2.8 mg/kg, iv measured for 3 to 240 mins by UHPLC-HRMS analysis; format: ADME, organism-based; conditions: in vivo, time 3-240 min
[6] = tested on: NIH3T3; test: Inhibition of myofibroblast activation in TGF-beta1-induced EMT in mouse NIH3T3 cells assessed as decrease in MMP2 level at 1 to 2 uM incubated for 48 hrs by Western blot analysis; format: functional, cell-based; conditions: dose 1-2 µM
[7] = tested on: NIH3T3; test: Inhibition of myofibroblast activation in TGF-beta1-induced EMT in mouse NIH3T3 cells assessed as decrease in alpha-SMA mRNA level at 1 to 2 uM incubated for 48 hrs by qPCR analysis; format: functional, cell-based; conditions: dose 1-2 µM
[8] = tested on: HK-2; test: Cytotoxicity against human HK-2 cells assessed as inhibition of cell viability at 160 uM incubated for 24 hrs by CCK8 assay; format: toxicity, cell-based; conditions: hk-2, 24 h
[9] = tested on: HK-2; test: Inhibition of myofibroblast activation in TGF-beta1-induced EMT in human HK-2 cells assessed as decrease in alpha-SMA level at 1 to 10 uM incubated for 24 hrs by Western blot analysis; format: functional, cell-based; conditions: dose 1-10 µM
[10] = tested on: HK-2; test: Inhibition of myofibroblast activation in TGF-beta1-induced EMT in human HK-2 cells assessed as decrease in collagen I level at 1 to 5 uM incubated for 24 hrs by Western blot analysis; format: functional, cell-based; conditions: dose 1-5 µM
[11] = tested on: HK-2; test: Inhibition of myofibroblast activation in TGF-beta1-induced EMT in human HK-2 cells assessed as decrease in vimentin level at 1 to 5 uM incubated for 24 hrs by Western blot analysis; format: functional, cell-based; conditions: dose 1-5 µM
[12] = tested on: HK-2; test: Inhibition of myofibroblast activation in TGF-beta1-induced EMT in human HK-2 cells assessed as increase in E-cadherin level at 1 to 5 uM incubated for 24 hrs by Western blot analysis; format: functional, cell-based; conditions: dose 1-5 µM
[13] = tested on: HK-2; test: Inhibition of myofibroblast activation in TGF-beta1-induced EMT in human HK-2 cells assessed as increase in CDH-1 mRNA level at 1 to 5 uM incubated for 24 hrs by qPCR analysis; format: functional, cell-based; conditions: dose 1-5 µM
[14] = tested on: HK-2; test: Inhibition of myofibroblast activation in TGF-beta1-induced EMT in human HK-2 cells assessed as decrease in VIM mRNA level at 1 to 5 uM incubated for 24 hrs by qPCR analysis; format: functional, cell-based; conditions: dose 1-5 µM
[15] = tested on: HK-2; test: Inhibition of myofibroblast activation in TGF-beta1-induced EMT in human HK-2 cells assessed as decrease in ACTA2 mRNA level at 1 to 5 uM incubated for 24 hrs by qPCR analysis; format: functional, cell-based; conditions: dose 1-5 µM
[16] = tested on: Mus musculus; test: Anti-fibrotic activity in C57BL/6J mouse model of unilateral ureteral obstruction assessed as decrease in MMP2 level at 0.25 mg/kg, ip administered every day for 7 days by Western blot analysis; format: functional, organism-based; conditions: time 7.0 day
[17] = tested on: Mus musculus; test: Anti-fibrotic activity in C57BL/6J mouse model of unilateral ureteral obstruction assessed as decrease in vimentin level at 0.25 mg/kg, ip administered every day for 7 days by Western blot analysis; format: functional, organism-based; conditions: time 7.0 day
[18] = tested on: Mus musculus; test: Anti-fibrotic activity in C57BL/6J mouse model of unilateral ureteral obstruction assessed as decrease in fibronectin mRNA level at 0.25 mg/kg, ip administered every day for 7 days by qPCR analysis; format: functional, organism-based; conditions: time 7.0 day
[19] = tested on: Mus musculus; test: Anti-fibrotic activity in C57BL/6J mouse model of unilateral ureteral obstruction assessed as decrease in alpha-SMA mRNA level at 0.25 mg/kg, ip administered every day for 7 days by qPCR analysis; format: functional, organism-based; conditions: time 7.0 day
[20] = tested on: Mus musculus; test: Anti-fibrotic activity in C57BL/6J mouse model of unilateral ureteral obstruction assessed as decrease in vimentin mRNA level at 0.25 mg/kg, ip administered every day for 7 days by qPCR analysis; format: functional, organism-based; conditions: time 7.0 day
[21] = tested on: Mus musculus; test: Anti-fibrotic activity in C57BL/6J mouse model of unilateral ureteral obstruction assessed as decrease in yellowish appearance of kidney at 0.05 to 1.25 mg/kg, ip administered every day for 7 days; format: functional, organism-based; conditions: dose 0.05-1.25 mg/kg, time 7.0 day
[22] = tested on: Mus musculus; test: Anti-fibrotic activity in C57BL/6J mouse model of unilateral ureteral obstruction assessed as decrease in kidney edema at 0.05 to 1.25 mg/kg, ip administered every day for 7 days; format: functional, organism-based; conditions: dose 0.05-1.25 mg/kg, time 7.0 day
[23] = tested on: Mus musculus; test: Anti-fibrotic activity in C57BL/6J mouse model of unilateral ureteral obstruction assessed as decrease in kidney fibrosis at 0.05 to 1.25 mg/kg, ip administered every day for 7 days; format: functional, organism-based; conditions: dose 0.05-1.25 mg/kg, time 7.0 day
[24] = tested on: Mus musculus; test: Anti-fibrotic activity in C57BL/6J mouse model of unilateral ureteral obstruction assessed as decrease in renal fibrosis at 0.05 to 1.25 mg/kg, ip administered every day for 7 days by H and E staining based analysis; format: functional, organism-based; conditions: dose 0.05-1.25 mg/kg, time 7.0 day
[25] = tested on: Mus musculus; test: Anti-fibrotic activity in C57BL/6J mouse model of unilateral ureteral obstruction assessed as decrease in renal collagen I […] level administered intraperitoneally every day for 7 days by IHC analysis; format: functional, organism-based; conditions: dose 0.05-1.25 mg/kg, route ip, time 7.0 day

CCCCCCCCCCCC(=O)N[C@H](CC(=O)O)C(=O)N[C@@H](Cc1c[nH]cn1)C(=O)N[C@@H](CC(N)=O)C(=O)N[C@H]1CSCCCCCCSC[C@@H](C(N)=O)NC(=O)[C@@H](C)NC(=O)[C@H](CCC(N)=O)NC(=O)[C@@H]2CCCN2C1=O
half-life [1]: 27 h
inhibition [2]: Active
half-life [3]: 1.08 h
AUC(0-t) [4]: 1890 ng·h/mL
Vd [5]: 0.044 L
inhibition [6]: Active
inhibition [7]: Active
Activity [8]: Non-toxic
inhibition [9]: Active; No Additional Suppression Observed At Concentrations Above 5 Î¼M
inhibition [10]: Active
inhibition [11]: Active
inhibition [12]: Active
inhibition [13]: Active
inhibition [14]: Active
inhibition [15]: Active
Activity [16]: Active
Activity [17]: Active
Activity [18]: Active
Activity [19]: Active
Activity [20]: Active
Activity [21]: Active
Activity [22]: Active
Activity [23]: Active
Activity [24]: Active
Activity [25]: Dose-dependent-effect
